In paper PMC5548886 (Cancer Medicine, 2017):

System: locally advanced or metastatic melanoma
Experiment: Antitumor response by RECIST 1.0
Format: in vivo, human
Experimental: Medical history and demographics were collected at screening. The safety of study medication was evaluated on the basis of rate, type, severity graded in accordance with NCI CTCAE version 3.0. Safety assessments consisted of collecting all AEs, serious adverse events (SAEs) with their severity and relationship with study drug, and pregnancies. They included the regular monitoring of hematology, blood chemistry and urine performed at the study center/central laboratory and regular assessments of vital signs, physical condition, body weight, performance status, and cardiac data (i.e. electrocardiogram (ECG)/echocardiogram (ECHO)). Abnormalities in clinical laboratory tests that were considered clinically significant by the Investigator were recorded on the AE CRF. Dose‐limiting toxicities (DLTs) were defined for various organ systems and other clinically relevant adverse effects (Table S1). The DLT window was the first cycle while AEs were captured for the entire course of treatment. Evaluation of tumor response was conducted at Baseline, and at the end of every 8 weeks of treatment. Response was assessed using the Response Evaluation Criteria in Solid Tumors (RECIST) 1.0. […] All patients discontinuing from the study for progressive disease were to have their disease progression documented by radiologic evaluation.

[1] = 33 patients with BRAF-WT melanomas
[2] = BRAF mutation, All patients, 33 evaluable
[3] = BRAF mutation, DL 5, 8 evaluable
[4] = BRAF mutation, DL 6, 10 evaluable
[5] = BRAF mutation, DLs 1 to 4, 6 evaluable
[6] = BRAF mutation, DLs 7 and 7.1, 9 evaluable
[7] = BRAF unspecified/unknown, All patients, 5 evaluable
[8] = BRAF unspecified/unknown, DL 5, 0 evaluable
[9] = BRAF unspecified/unknown, DL 6, 2 evaluable
[10] = BRAF unspecified/unknown, DLs 1 to 4, 1 evaluable
[11] = BRAF unspecified/unknown, DLs 7 and 7.1, 2 evaluable
[12] = BRAF wild-type, All patients, 28 evaluable
[13] = BRAF wild-type, DL 5, 5 evaluable
[14] = BRAF wild-type, DL 6, 8 evaluable
[15] = BRAF wild-type, DLs 1 to 4, 8 evaluable
[16] = BRAF wild-type, DLs 7 and 7.1, 7 evaluable
[17] = Total, All patients, 66 evaluable
[18] = Total, DLs 1 to 4, 15 evaluable
[19] = Total, DLs 7 and 7.1, 18 evaluable

Compound: Cn1c(Nc2ccc(C(F)(F)F)cc2)nc2cc(Oc3ccnc(-c4ncc(C(F)(F)F)[nH]4)c3)ccc21 [RAF265]
- number of CR [1]: one
- number of PR [1]: two
- number of PR (39 patients with BRAF V600E mutation): Four
- number of complete responses (CR) (66 evaluable patients): one
- number of partial responses (PR) (66 evaluable patients): seven
- objective response rate (ORR), RECIST (66 evaluable patients, all dose levels): 12.1%
- Best response CR or PR (All patients, 66 evaluable): 8 (12.1) n (%)
- Best response CR, PR or SD (All patients, 66 evaluable): 35 (53) n (%)
- Complete response (CR), best overall response [2]: 0 n (%)
- Partial response (PR), best overall response [2]: 4 (12) n (%)
- Progressive disease (PD), best overall response [2]: 14 (42) n (%)
- Stable disease (SD), best overall response [2]: 15 (46) n (%)
- Complete response (CR), best overall response [3]: 0 n (%)
- Partial response (PR), best overall response [3]: 1 (12.5) n (%)
- Progressive disease (PD), best overall response [3]: 4 (50) n (%)
- Stable disease (SD), best overall response [3]: 3 (37.5) n (%)
- Complete response (CR), best overall response [4]: 0 n (%)
- Partial response (PR), best overall response [4]: 1 (10) n (%)
- Progressive disease (PD), best overall response [4]: 2 (20) n (%)
- Stable disease (SD), best overall response [4]: 7 (70) n (%)
- Complete response (CR), best overall response [5]: 0 n (%)
- Partial response (PR), best overall response [5]: 2 (33.3) n (%)
- Progressive disease (PD), best overall response [5]: 4 (66.7) n (%)
- Stable disease (SD), best overall response [5]: 0 n (%)
- Complete response (CR), best overall response [6]: 0 n (%)
- Partial response (PR), best overall response [6]: 0 n (%)
- Progressive disease (PD), best overall response [6]: 4 (44) n (%)
- Stable disease (SD), best overall response [6]: 5 (56) n (%)
- Complete response (CR), best overall response [7]: 0 n (%)
- Partial response (PR), best overall response [7]: 1 (20) n (%)
- Progressive disease (PD), best overall response [7]: 3 (60) n (%)
- Stable disease (SD), best overall response [7]: 1 (20) n (%)
- Complete response (CR), best overall response [8]: 0 n (%)
- Partial response (PR), best overall response [8]: 0 n (%)
- Progressive disease (PD), best overall response [8]: 0 n (%)
- Stable disease (SD), best overall response [8]: 0 n (%)
- Complete response (CR), best overall response [9]: 0 n (%)
- Partial response (PR), best overall response [9]: 0 n (%)
- Progressive disease (PD), best overall response [9]: 2 (100) n (%)
- Stable disease (SD), best overall response [9]: 0 n (%)
- Complete response (CR), best overall response [10]: 0 n (%)
- Partial response (PR), best overall response [10]: 0 n (%)
- Progressive disease (PD), best overall response [10]: 0 n (%)
- Stable disease (SD), best overall response [10]: 1 (100) n (%)
- Complete response (CR), best overall response [11]: 0 n (%)
- Partial response (PR), best overall response [11]: 1 (50) n (%)
- Progressive disease (PD), best overall response [11]: 1 (50) n (%)
- Stable disease (SD), best overall response [11]: 0 n (%)
- Complete response (CR), best overall response [12]: 1 (3.6) n (%)
- Progressive disease (PD), best overall response [12]: 14 (50) n (%)
- Stable disease (SD), best overall response [12]: 11 (39.3) n (%)
- Complete response (CR), best overall response [13]: 0 n (%)
- Partial response (PR), best overall response [13]: 0 n (%)
- Progressive disease (PD), best overall response [13]: 2 (40) n (%)
- Stable disease (SD), best overall response [13]: 3 (60) n (%)
- Complete response (CR), best overall response [14]: 0 n (%)
- Partial response (PR), best overall response [14]: 1 (12.5) n (%)
- Progressive disease (PD), best overall response [14]: 5 (62.5) n (%)
- Stable disease (SD), best overall response [14]: 2 (25) n (%)
- Complete response (CR), best overall response [15]: 0 n (%)
- Partial response (PR), best overall response [15]: 1 (12.5) n (%)
- Progressive disease (PD), best overall response [15]: 6 (75) n (%)
- Stable disease (SD), best overall response [15]: 1 (12.5) n (%)
- Complete response (CR), best overall response [16]: 1 (14.3) n (%)
- Partial response (PR), best overall response [16]: 0 n (%)
- Progressive disease (PD), best overall response [16]: 1 (14.3) n (%)
- Stable disease (SD), best overall response [16]: 5 (71.4) n (%)
- Best response CR or PR (DL 5, 13 evaluable): 1 (7.7) n (%)
- Best response CR, PR or SD (DL 5, 13 evaluable): 7 (53.8) n (%)
- Best response CR or PR (DL 6, 20 evaluable): 2 (10) n (%)
- Best response CR, PR or SD (DL 6, 20 evaluable): 11 (55) n (%)
- Best response CR or PR (DLs 1 to 4, 15 evaluable): 3 (20) n (%)
- Best response CR, PR or SD (DLs 1 to 4, 15 evaluable): 5 (33.3) n (%)
- Best response CR or PR (DLs 7 and 7.1, 18 evaluable): 2 (11.1) n (%)
- Best response CR, PR or SD (DLs 7 and 7.1, 18 evaluable): 12 (66.7) n (%)
- Complete response (CR), best overall response [17]: 1 (1.5) n (%)
- Partial response (PR), best overall response [17]: 7 (10.6) n (%)
- Progressive disease (PD), best overall response [17]: 31 (47) n (%)
- Stable disease (SD), best overall response [17]: 27 (40.9) n (%)
- Complete response (CR), best overall response (Total, DL 5, 13 evaluable): 0 n (%)
- Partial response (PR), best overall response (Total, DL 5, 13 evaluable): 1 (7.7) n (%)
- Progressive disease (PD), best overall response (Total, DL 5, 13 evaluable): 6 (46.1) n (%)
- Stable disease (SD), best overall response (Total, DL 5, 13 evaluable): 6 (46.1) n (%)
- Complete response (CR), best overall response (Total, DL 6, 20 evaluable): 0 n (%)
- Partial response (PR), best overall response (Total, DL 6, 20 evaluable): 2 (10) n (%)
- Progressive disease (PD), best overall response (Total, DL 6, 20 evaluable): 9 (45) n (%)
- Stable disease (SD), best overall response (Total, DL 6, 20 evaluable): 9 (45) n (%)
- Complete response (CR), best overall response [18]: 0 n (%)
- Partial response (PR), best overall response [18]: 3 (20) n (%)
- Progressive disease (PD), best overall response [18]: 10 (66.7) n (%)
- Stable disease (SD), best overall response [18]: 2 (13.3) n (%)
- Complete response (CR), best overall response [19]: 1 (5.6) n (%)
- Partial response (PR), best overall response [19]: 1 (5.6) n (%)
- Progressive disease (PD), best overall response [19]: 6 (33.3) n (%)
- Stable disease (SD), best overall response [19]: 10 (55.6) n (%)
- median duration of response (responders, range 1.4–51.7 months): 18.3 months
- number of PR (unknown BRAF mutation status): one
